Experimental data published in ChEMBL document CHEMBL3885881, “DrugMatrix”.

Species: Rattus norvegicus
Assay: DrugMatrix - Regimen: Daily Repeat
Format: toxicity, organism-based, Sprague-Dawley
Design: regimen Daily Repeat, gender Male, age 6-8 weeks
Conditions: in vivo, po, route oral GAVAGE, vehicle 100 % WATER; for ABSOLUTE BASOPHIL / ABSOLUTE EOSINOPHIL / ABSOLUTE LYMPHOCYTE / ABSOLUTE MONOCYTE / ABSOLUTE SEGMENTED NEUTROPHIL / BASOPHIL / EOSINOPHIL / ERYTHROCYTE COUNT / HEMATOCRIT / HEMOGLOBIN / LEUKOCYTE COUNT / LYMPHOCYTE / MEAN CORPUSCULAR HEMOGLOBIN / MEAN CORPUSCULAR HEMOGLOBIN CONCENTRATION / MEAN CORPUSCULAR VOLUME / MONOCYTE / NEUTROPHIL / NUCLEATED RED BLOOD CELLS / PLATELET COUNT: tissue Blood; for ALANINE AMINOTRANSFERASE / ALBUMIN / ALKALINE PHOSPHATASE / ASPARTATE AMINOTRANSFERASE / BLOOD UREA NITROGEN / CARBON DIOXIDE / CHLORIDE / CHOLESTEROL / CREATINE PHOSPHOKINASE / CREATININE / GLUCOSE / LACTATE DEHYDROGENASE / LIPASE / PHOSPHORUS / POTASSIUM / SODIUM / TOTAL BILIRUBIN / TOTAL PROTEIN / URIC ACID: tissue Plasma
[1] = 0 mg/kg, 72 h, dose level Control, time 3 day
[2] = 0 mg/kg, 120 h, dose level Control, time 5 day
[3] = 15 mg/kg, 72 h, dose level Low, time 3 day

`NNC(=O)c1ccncc1` [ISONIAZID] was tested, and the “ABSOLUTE BASOPHIL” value [1] was 0 CELLS/uL, the “ABSOLUTE EOSINOPHIL” value [1] was 46 CELLS/uL and the “ABSOLUTE LYMPHOCYTE” value [1] was 10225.67 CELLS/uL. For the same compound, the “ABSOLUTE MONOCYTE” value [1] was 319.33 CELLS/uL, the “ABSOLUTE SEGMENTED NEUTROPHIL” value [1] was 1242.33 CELLS/uL and the BASOPHIL [1] was 0%. The EOSINOPHIL [1] was 0.33%, the “ERYTHROCYTE COUNT” value [1] was 5.17 x10E6/uL and the HEMATOCRIT [1] was 33.43%. For the same compound, the HEMOGLOBIN [1] was 12.55 G/DL, the “LEUKOCYTE COUNT” value [1] was 11.83 x10E3/uL and the LYMPHOCYTE [1] was 86.5%. For the same compound, the “MEAN CORPUSCULAR HEMOGLOBIN” value [1] was 24.35 pg, the “MEAN CORPUSCULAR HEMOGLOBIN CONCENTRATION” value [1] was 37.57 G/DL and the “MEAN CORPUSCULAR VOLUME” value [1] was 64.8 fL. The MONOCYTE [1] was 2.67%, the NEUTROPHIL [1] was 10.5% and the “NUCLEATED RED BLOOD CELLS” value [1] was 0.17 /100WBC. For the same compound, the “PLATELET COUNT” value [1] was 1026.17 x10E3/uL, the “ALANINE AMINOTRANSFERASE” value [1] was 52.67 u/L and the ALBUMIN [1] was 4.17 G/DL. The “ALKALINE PHOSPHATASE” value [1] was 331 u/L, the “ASPARTATE AMINOTRANSFERASE” value [1] was 92.33 u/L and the “BLOOD UREA NITROGEN” value [1] was 15.33 mg/dL. The “CARBON DIOXIDE” value [1] was 26.17 mmol/L, the CHLORIDE [1] was 103.17 MEQ/L and the CHOLESTEROL [1] was 73.67 mg/dL. For the same compound, the “CREATINE PHOSPHOKINASE” value [1] was 472.83 u/L, the CREATININE [1] was 0.29 mg/dL and the GLUCOSE [1] was 178.5 mg/dL. The “LACTATE DEHYDROGENASE” value [1] was 244.83 u/L, the LIPASE [1] was 10.67 u/L and the PHOSPHORUS [1] was 12.45 mg/dL. The POTASSIUM [1] was 6.35 MEQ/L, the SODIUM [1] was 144.27 MEQ/L and the “TOTAL BILIRUBIN” value [1] was 0.13 mg/dL. For the same compound, the “TOTAL PROTEIN” value [1] was 5.77 G/DL, the “URIC ACID” value [1] was 2.08 mg/dL and the “ABSOLUTE BASOPHIL” value [2] was 0 CELLS/uL. For the same compound, the “ABSOLUTE EOSINOPHIL” value [2] was 23.5 CELLS/uL, the “ABSOLUTE LYMPHOCYTE” value [2] was 12797.33 CELLS/uL and the “ABSOLUTE MONOCYTE” value [2] was 465.5 CELLS/uL. The “ABSOLUTE SEGMENTED NEUTROPHIL” value [2] was 1313.67 CELLS/uL, the BASOPHIL [2] was 0% and the EOSINOPHIL [2] was 0.17%. For the same compound, the “ERYTHROCYTE COUNT” value [2] was 5.76 x10E6/uL, the HEMATOCRIT [2] was 36.72% and the HEMOGLOBIN [2] was 13.72 G/DL. For the same compound, the “LEUKOCYTE COUNT” value [2] was 14.6 x10E3/uL, the LYMPHOCYTE [2] was 87.5% and the “MEAN CORPUSCULAR HEMOGLOBIN” value [2] was 23.8 pg. For the same compound, the “MEAN CORPUSCULAR HEMOGLOBIN CONCENTRATION” value [2] was 37.35 G/DL, the “MEAN CORPUSCULAR VOLUME” value [2] was 63.72 fL and the MONOCYTE [2] was 3.17%. For the same compound, the NEUTROPHIL [2] was 9.17%, the “NUCLEATED RED BLOOD CELLS” value [2] was 0.33 /100WBC and the “PLATELET COUNT” value [2] was 1270.67 x10E3/uL. The “ALANINE AMINOTRANSFERASE” value [2] was 50.5 u/L, the ALBUMIN [2] was 4.32 G/DL and the “ALKALINE PHOSPHATASE” value [2] was 339.67 u/L. For the same compound, the “ASPARTATE AMINOTRANSFERASE” value [2] was 88 u/L, the “BLOOD UREA NITROGEN” value [2] was 17 mg/dL and the “CARBON DIOXIDE” value [2] was 25 mmol/L. The CHLORIDE [2] was 103.83 MEQ/L, the CHOLESTEROL [2] was 71.33 mg/dL and the “CREATINE PHOSPHOKINASE” value [2] was 281.83 u/L. For the same compound, the CREATININE [2] was 0.26 mg/dL, the GLUCOSE [2] was 161.67 mg/dL and the “LACTATE DEHYDROGENASE” value [2] was 191.17 u/L. For the same compound, the LIPASE [2] was 10.17 u/L, the PHOSPHORUS [2] was 11.72 mg/dL and the POTASSIUM [2] was 6.76 MEQ/L. For the same compound, the SODIUM [2] was 145.17 MEQ/L, the “TOTAL BILIRUBIN” value [2] was 0.2 mg/dL and the “TOTAL PROTEIN” value [2] was 6.15 G/DL. For the same compound, the “URIC ACID” value [2] was 2 mg/dL, the “ABSOLUTE BASOPHIL” value [3] was 0 CELLS/uL and the “ABSOLUTE EOSINOPHIL” value [3] was 0 CELLS/uL. For the same compound, the “ABSOLUTE LYMPHOCYTE” value [3] was 12954 CELLS/uL, the “ABSOLUTE MONOCYTE” value [3] was 520 CELLS/uL and the “ABSOLUTE SEGMENTED NEUTROPHIL” value [3] was 1492.67 CELLS/uL. For the same compound, the BASOPHIL [3] was 0%, the EOSINOPHIL [3] was 0% and the “ERYTHROCYTE COUNT” value [3] was 5.66 x10E6/uL. For the same compound, the HEMATOCRIT [3] was 34.97%, the HEMOGLOBIN [3] was 13.17 G/DL and the “LEUKOCYTE COUNT” value [3] was 14.97 x10E3/uL. The LYMPHOCYTE [3] was 86.33%, the “MEAN CORPUSCULAR HEMOGLOBIN” value [3] was 23.27 pg and the “MEAN CORPUSCULAR HEMOGLOBIN CONCENTRATION” value [3] was 37.67 G/DL. For the same compound, the “MEAN CORPUSCULAR VOLUME” value [3] was 61.73 fL, the MONOCYTE [3] was 3.67% and the NEUTROPHIL [3] was 10%. For the same compound, the “NUCLEATED RED BLOOD CELLS” value [3] was 0 /100WBC, the “PLATELET COUNT” value [3] was 1157.33 x10E3/uL and the “ALANINE AMINOTRANSFERASE” value [3] was 52.67 u/L. The ALBUMIN [3] was 4.23 G/DL, the “ALKALINE PHOSPHATASE” value [3] was 369.67 u/L and the “ASPARTATE AMINOTRANSFERASE” value [3] was 95.67 u/L. The “BLOOD UREA NITROGEN” value [3] was 14.33 mg/dL, the “CARBON DIOXIDE” value [3] was 26 mmol/L and the CHLORIDE [3] was 102.33 MEQ/L. The CHOLESTEROL [3] was 93.67 mg/dL, the “CREATINE PHOSPHOKINASE” value [3] was 235.67 u/L and the CREATININE [3] was 0.28 mg/dL. For the same compound, the GLUCOSE [3] was 155 mg/dL, the “LACTATE DEHYDROGENASE” value [3] was 140.33 u/L and the LIPASE [3] was 12 u/L. For the same compound, the PHOSPHORUS [3] was 12.77 mg/dL, the POTASSIUM [3] was 6.52 MEQ/L and the SODIUM [3] was 144.23 MEQ/L. The “TOTAL BILIRUBIN” value [3] was 0.2 mg/dL, the “TOTAL PROTEIN” value [3] was 5.83 G/DL and the “URIC ACID” value [3] was 1.4 mg/dL.
